Experimental data from patent publication US6576624B1, “Use of dopamine receptor antagonists in palliative tumor therapy” (Zentaris AG, priority 1996, dated 2003).
Read-outs that look alike come from different tables or passages of the source. Marks after values point to notes of the source that are not given here.

Tests used:
[1] = for Changes of body weight, Control AUC, day 7 / Changes of body weight, D-18506(4 × 68.1 mg/kg p.o.) AUC, day 7 / Changes of body weight, D-21266(4 × 46.4 mg/kg p.o.) AUC, day 7: AUC to day 7; for Changes of body weight, Control AUC, day 7 / Changes of body weight, Control AUC, day 11: asterisks = comparison with control group; for Changes of body weight, D-18506(4 × 68.1 mg/kg p.o.) AUC, day 7 / Changes of body weight, D-18506(4 × 68.1 mg/kg p.o.) AUC, day 11: compared with D-18506 alone (D-18506 4 × 68.1 mg/kg p.o. alone); for Changes of body weight, D-18506(4 × 68.1 mg/kg p.o.) AUC, day 7 / Changes of body weight, D-18506(4 × 68.1 mg/kg p.o.) AUC, day 11 / Changes of body weight, D-21266(4 × 46.4 mg/kg p.o.) AUC, day 7 / Changes of body weight, D-21266(4 × 46.4 mg/kg p.o.) AUC, day 11: same i.p. doses as c1; for Changes of body weight, Control AUC, day 11 / Changes of body weight, D-18506(4 × 68.1 mg/kg p.o.) AUC, day 11 / Changes of body weight, D-21266(4 × 46.4 mg/kg p.o.) AUC, day 11: AUC to day 11; for Changes of body weight, D-21266(4 × 46.4 mg/kg p.o.) AUC, day 7 / Changes of body weight, D-21266(4 × 46.4 mg/kg p.o.) AUC, day 11: compared with D-21266 alone (D-21266 4 × 46.4 mg/kg p.o. alone); for Effect on body weight development of animals treated with octadecyl(1,1-dimethylpiperidinio-4-yl)phosphate: simultaneous administration with D-21266, normal rats, FIGS. 7 and 8, Table 2
From the text: Comparative studies with respect to body weight changes in healthy and tumor-bearing rats were investigated after administration of miltefosine or octadecyl(1,1-dimethylpiperidinio-4-yl)phosphate alone and in combination with various appetite-stimulating compounds.

[2] = cancer patients; Eur. J. Cancer 29A, 208-209, 1993; cited from earlier work
[3] = tested on: DMBA-induced breast tumor; experiment: Anti-tumor action on DMBA-induced breast tumor of rats; type: in vivo, rat; settings: rats with DMBA-induced breast tumor; FIGS. 11-12
[4] = Table 1, rat, i.p. mg/kg: Domperidone 0.1, Pimozide 0.2, Metoclopramide 0.2, Cyproheptadine 2.5, combinations with D-18506 4 × 68.1 mg/kg p.o.
[5] = Table 2, rat, i.p. mg/kg: Pimozide 0.1, Cyproheptadine 2.5, Metoclopramide 0.2, Domperidone 0.1, combinations with D-21266 4 × 46.4 mg/kg p.o.

Structure (SMILES): CN1CCC(=C2c3ccccc3C=Cc3ccccc32)CC1 [Cyproheptadine, cyproheptadine]
- Changes of body weight, Control AUC, day 7 [1, 4]: 0.8
- Changes of body weight, D-18506(4 × 68.1 mg/kg p.o.) AUC, day 7 ([1]; Table 1, rat): 0.8
- Changes of body weight, Control AUC, day 11 [1, 4]: 15.5
- Changes of body weight, D-18506(4 × 68.1 mg/kg p.o.) AUC, day 11 ([1]; Table 1, rat): 15.5
- Changes of body weight, Control AUC, day 7 [1, 5]: 1.5
- Changes of body weight, D-21266(4 × 46.4 mg/kg p.o.) AUC, day 7 ([1]; Table 2, rat): 1.5
- Changes of body weight, Control AUC, day 11 [1, 5]: 20.6
- Changes of body weight, D-21266(4 × 46.4 mg/kg p.o.) AUC, day 11 ([1]; Table 2, rat): 20.6
- Effect on body weight development of animals treated with octadecyl(1,1-dimethylpiperidinio-4-yl)phosphate [1]: no significant effect

Structure (SMILES): CCCCCCCCCCCCCCCCOP(=O)([O-])OCC[N+](C)(C)C [D-18506, miltefosine]
- Changes of body weight, D-18506(4 × 68.1 mg/kg p.o.) AUC, day 7 ([1]; Table 1, rat): −17.9
- Changes of body weight, D-18506(4 × 68.1 mg/kg p.o.) AUC, day 11 ([1]; Table 1, rat): −23.5
- Body weight change on administration of miltefosine alone ([1]; rat, in vivo): clear loss of weight
- Side effects in patients treated with miltefosine [2]: marked loss of body weight

Structure (SMILES): CCCCCCCCCCCCCCCCCCOP(=O)([O-])OC1CC[N+](C)(C)CC1 [D-21266, octadecyl(1,1-dimethylpiperidinio-4-yl)phosphate]
- Changes of body weight, D-21266(4 × 46.4 mg/kg p.o.) AUC, day 7 ([1]; Table 2, rat): 10.6
- Changes of body weight, D-21266(4 × 46.4 mg/kg p.o.) AUC, day 11 ([1]; Table 2, rat): 37.1
- Body weight development after octadecyl(1,1-dimethylpiperidinio-4-yl)phosphate alone ([1]; rat, in vivo): increase in weight less than the control animals

Structure (SMILES): O=c1[nH]c2ccccc2n1CCCN1CCC(n2c(=O)[nH]c3cc(Cl)ccc32)CC1 [Domperidone, domperidone]
- Effect on anti-tumor action of octadecyl(1,1-dimethylpiperidinio-4-yl)phosphate [3]: without affecting the anti-tumor action
- Effect on body weight development of animals treated with octadecyl(1,1-dimethylpiperidinio-4-yl)phosphate [1]: more than compensated
- Body weight development, alone and in combination with octadecyl(1,1-dimethylpiperidinio-4-yl)phosphate ([1]; tumor-bearing rats, FIGS. 9-10): increase the body weight development

Structure (SMILES): CCN(CC)CCNC(=O)c1cc(Cl)c(N)cc1OC [Metoclopramide, metoclopramide]
- Changes of body weight, Control AUC, day 7 [1, 4]: 11.5
- Changes of body weight, D-18506(4 × 68.1 mg/kg p.o.) AUC, day 7 ([1]; Table 1, rat): 11.5**
- Changes of body weight, Control AUC, day 11 [1, 4]: 30.5
- Changes of body weight, D-18506(4 × 68.1 mg/kg p.o.) AUC, day 11 ([1]; Table 1, rat): 30.5**
- Changes of body weight, Control AUC, day 7 [1, 5]: 19.2
- Changes of body weight, D-21266(4 × 46.4 mg/kg p.o.) AUC, day 7 ([1]; Table 2, rat): 19.2
- Changes of body weight, Control AUC, day 11 [1, 5]: 49.4
- Changes of body weight, D-21266(4 × 46.4 mg/kg p.o.) AUC, day 11 ([1]; Table 2, rat): 49.4
- Effect on body weight development of animals treated with octadecyl(1,1-dimethylpiperidinio-4-yl)phosphate [1]: no significant effect
- Effect on the loss of weight caused by miltefosine ([1]; simultaneous administration with miltefosine, healthy and tumor-bearing rats, domperidone or pimozide 5×0.1 mg/kg i.p.): does not lead to any positive effect

Structure (SMILES): O=c1[nH]c2ccccc2n1C1CCN(CCCC(c2ccc(F)cc2)c2ccc(F)cc2)CC1 [Pimozide, pimozide]
- Changes of body weight, Control AUC, day 7 [1, 4]: 30.4**
- Changes of body weight, D-18506(4 × 68.1 mg/kg p.o.) AUC, day 7 ([1]; Table 1, rat): 30.4**
- Changes of body weight, Control AUC, day 11 [1, 4]: 69.8**
- Changes of body weight, D-18506(4 × 68.1 mg/kg p.o.) AUC, day 11 ([1]; Table 1, rat): 69.8**
- Changes of body weight, Control AUC, day 7 [1, 5]: 31.2**
- Changes of body weight, D-21266(4 × 46.4 mg/kg p.o.) AUC, day 7 ([1]; Table 2, rat): 31.2**
- Changes of body weight, Control AUC, day 11 [1, 5]: 67.5**
- Changes of body weight, D-21266(4 × 46.4 mg/kg p.o.) AUC, day 11 ([1]; Table 2, rat): 67.5**
